Where “and” joins values, the source holds several entries; their conditions need not be identical. Equal entries are not always repeated.
Tested on: U87 flank tumors
Experiment: U87 flank tumor growth, QST with or without IR
Type: in vivo, athymic nude mice
Settings: for flank tumor volume: U87, individual mice
Method: We next examined whether QST treatment alone or in combination with IR would be effective in slowing tumor growth in a flank model of GBM (U87). Tumor-bearing mice receiving IR were treated with 2-Gy fractions on Monday, Wednesday, and Friday (MWF) 2 hours after dosing with either vehicle solution or QST (10 mg/kg), for a total dose of 6 Gy. Following completion of IR, mice continued to receive vehicle or QST until the tumors reached the maximum volume threshold (Figure 5C). […] The mean tumor volume in mice with combination treatment was approximately 4.5-fold less than that in vehicle-treated mice at study completion (Figure 5D). […]
Rad225XL irradiator (Precision X -Ray).
For flank implantations, cells were pre pared in a 1:1 ratio with 100 uL Matrigel (Corning […]
syringe fitted with a 26 -gauge needle. Mice were anesthetized with isoflurane in a plastic desiccator placed in an ex ternally vented fume hood. The U87 -Matrigel cell suspension was then subcutaneously injected into the flank of the mouse on the posterior/lateral aspect of the lower rib cage. Mice were monitored daily , and growth of flank tumor area was measured with a di gital caliper (ThermoFisher) twice a week. […]
Preparation of QST for In Vivo Use
For in vivo preparation, QST was dissolved in 50% polyethylene glycol (PEG) 300, 50% sterile water solution for 10 mg/kg dosing. The suspension was then sonicated for 10 minutes to allow the drug to completely dissolve. Finally, the pH of both the drug and the vehicle solutions was adjusted to 7.4 before intraperitoneal dosing. […]
In Vivo Irradiation Studies
Intracranial or flank tumor–bearing nude mice were sedated with gaseous isoflurane before
IR. On the first week of treatment, 2 hours after treatment with QST or vehicle, the mice were […]
treated with 2 Gy of ionizing radiation on MWF for a total 6 Gy (3 doses). Ionizing radiation was administered with the RS2000 series biological research irradiator (Rad Source Technologies).
Treatment of Flank-Implanted Mice with QST and/or Radiation
Implanted flank tumors were allowed to grow until the tumor size reached 100 mm3 volume. Mice were randomized into groups before treatment and underwent treatment on MWF for the entire duration of the experiment until the tumor volumes exceeded 2000 mm3. Treatment groups included vehicle (50% PEG-300), QST alone (10 mg/kg), flank IR treatment with vehicle (2 Gy), and flank IR treatment (2 Gy) with QST (10 mg/kg). For mice receiving IR treatment with or without QST, mice were treated with 2 Gy on MWF for a total 6 Gy during the first week of treatment. QST was administered to mice through intraperitoneal injections 2 hours before flank tumor radiation treatment. Upon completion of the radiation regimen, IR-treated mice subsequently received QST or vehicle alone for the rest of the experiment. Tumor growth and treatment response were monitored by manually measuring the tumor area twice per week starting at 13 days after implantation. Upon reaching the tumor volume threshold (2000 mm3), mice were sacrificed, and plasma and tissue samples were harvested for PD and PK analyses 2 hours after treatment with a final dose of QST (10 mg/kg).
Treatment of Mice with Intracranially Implanted QST and/or Radiation
Mice with implanted tumors were allowed to grow until the tumor bioluminescence score reached […] radiance (p/s/[…]/sr). Mice were randomized into groups before treatment. For survival studies, mice underwent treatment on MWF for the entire duration of the experiment until moribund. For mice receiving IR treatment with or without QST, mice were treated with 2

Structure (SMILES): Cn1cc(CNCC2CCN(c3ncc(C(=O)NO)cn3)CC2)c2ccccc21 [QST, quisinostat]
- flank tumor volume (Combo 10 mg/kg Qstat + 6 Gy IR, day 13 post injection): 51.304 mm^3 and 81.733 mm^3 and 83.824 mm^3 and 92.512 mm^3 and 72.03 mm^3 and 53.016 mm^3 and 98.75 mm^3 and 120.094 mm^3
- flank tumor volume (Combo 10 mg/kg Qstat + 6 Gy IR, day 17 post injection): 65.596 mm^3 and 96.768 mm^3 and 135.816 mm^3 and 150.381 mm^3 and 167.445 mm^3 and 67.228 mm^3 and 109.551 mm^3 and 200.688 mm^3
- flank tumor volume (Combo 10 mg/kg Qstat + 6 Gy IR, day 27 post injection): 91.2925 mm^3 and 64 mm^3 and 59.048 mm^3 and 123.008 mm^3 and 158.112 mm^3 and 72.5 mm^3 and 139.707 mm^3 and 397.373 mm^3
- flank tumor volume (Combo 10 mg/kg Qstat + 6 Gy IR, day 31 post injection): 237.141 mm^3 and 56.316 mm^3 and 42.768 mm^3 and 189.216 mm^3 and 218.05 mm^3 and 112.694 mm^3 and 312.188 mm^3 and 612.562 mm^3
- flank tumor volume (Combo 10 mg/kg Qstat + 6 Gy IR, day 34 post injection): 414.304 mm^3 and 54.872 mm^3 and 50.274 mm^3 and 397.488 mm^3 and 349.272 mm^3 and 222.95 mm^3 and 441 mm^3 and 1009.49 mm^3
- flank tumor volume (Quisinostat 10 mg/kg IP MWF, day 13 post injection): 95.2875 mm^3 and 73.75 mm^3 and 78.4195 mm^3 and 109.8 mm^3 and 67.5 mm^3 and 101.92 mm^3 and 86.756 mm^3 and 57.6 mm^3 and 136.416 mm^3 and 41.8275 mm^3
- flank tumor volume (Quisinostat 10 mg/kg IP MWF, day 17 post injection): 210.7 mm^3 and 60.025 mm^3 and 67.76 mm^3 and 121.838 mm^3 and 70 mm^3 and 176.418 mm^3 and 85.054 mm^3 and 154.638 mm^3 and 242.76 mm^3 and 103.823 mm^3
- flank tumor volume (Quisinostat 10 mg/kg IP MWF, day 20 post injection): 451.315 mm^3 and 83.1875 mm^3 and 86.756 mm^3 and 196.02 mm^3 and 52.9 mm^3 and 139.24 mm^3 and 89.056 mm^3 and 128.797 mm^3 and 283.279 mm^3 and 129.762 mm^3
- flank tumor volume (Quisinostat 10 mg/kg IP MWF, day 27 post injection): 1576.6 mm^3 and 97.556 mm^3 and 122.247 mm^3 and 660 mm^3 and 99.0945 mm^3 and 314.792 mm^3 and 96.9105 mm^3 and 423.864 mm^3 and 686.07 mm^3 and 596.712 mm^3
- flank tumor volume (Quisinostat 10 mg/kg IP MWF, day 31 post injection): 2338.49 mm^3 and 75 mm^3 and 125.736 mm^3 and 1098.08 mm^3 and 116.614 mm^3 and 483.181 mm^3 and 162.729 mm^3 and 576 mm^3 and 626.336 mm^3 and 1078.78 mm^3
- flank tumor volume (Quisinostat 10 mg/kg IP MWF, day 34 post injection): 2338.49 mm^3 and 62.5 mm^3 and 144.652 mm^3 and 1381.2 mm^3 and 108.192 mm^3 and 501 mm^3 and 248.832 mm^3 and 786.52 mm^3 and 822.197 mm^3 and 1622.4 mm^3
- mean tumor volume, fold less than in vehicle-treated mice (U87 flank, QST 10 mg/kg + IR 6 Gy combination, at study completion): approximately 4.5 fold
